We go through 1 molecule from ChEMBL document CHEMBL5584338, “Design, Synthesis, and Biological Evaluation of 5-Amino-4-fluoro-1H-benzo[d]imidazole-6-carboxamide Derivatives as Novel and Potential MEK/RAF Complex Inhibitors Based on the "Clamp" Strategy” (J Med Chem, 2024).

Assay [1] deals with MIA PaCa-2. Description: Induction of apoptosis in human MIA PaCa-2 cells assessed as early apoptotic cells at 5 uM incubated for 24 hrs by Annexin V-FITC/PI staining based flow cytometry (reference value: 5.02 %). It counts as functional. (In general: In flow cytometry, cells or beads pass a laser one at a time.)
A short description of assay [2]: Antiproliferative activity against mouse C26 cells harboring KRAS G12D mutant incubated for 72 hrs by CCK8 assay. The assay is classed as functional, cell-based, C-26. The conditions noted are these: C26, 72 h.
Assay [3] concerns MIA PaCa-2. Description: Inhibition of MEK1/2/BRAF complex in human MIA PaCa-2 cells at 100 nM incubated for 4 hrs by co-immunoprecipitation method. It counts as cell-based.
In assay [4] the test system is MIA PaCa-2. The assay can be described thus: Induction of apoptosis in human MIA PaCa-2 cells assessed as late apoptotic cells at 5 uM incubated for 24 hrs by Annexin V-FITC/PI staining based flow cytometry (reference value: 6.90 %). It counts as functional.
A short description of assay [5]: Antitumor activity against mouse C26 cells harboring KRAS G12D mutant xenografted in BALB/c mouse at 30 mg/kg, iv administered 5 times a week for 12 days relative to control. The assay is classed as functional, C-26. The conditions noted are these: C26, 288 h, time 12 day, read-out: TGI.
The subject of the next assay is HUVEC. Description: Inhibition of cell migration in human HUVEC cells at 0.01 to 1 uM incubated for 24 hrs by wound healing assay. It counts as functional, cell-based. The following applies: dose 0.01-1 µM.
For assay [6], the system named is MIA PaCa-2. The assay can be described thus: Induction of apoptosis in human MIA PaCa-2 cells assessed as increase in cleaved PARP-1 level upto 1 uM incubated for 24 hrs by Western blot analysis. It counts as functional, cell-based. For orientation: In western blotting, separated proteins are transferred to a membrane and probed.
The subject of assay [7] is HCT-116. The assay can be described thus: Antitumor activity against human HCT-116 cells harboring KRAS G13D mutant xenografted in NU/NU mouse at 30 mg/kg, iv administered 5 times a week for 16 days relative to control. It counts as functional. The following applies: HCT-116, 384 h, time 16 day, read-out: TGI. A general note: Xenograft models place foreign cells or tissue in a host animal.

Assay [8] concerns the target T1, Serine/threonine-protein kinase A-Raf (Homo sapiens) (UniProt P10398).
T1 sequence (whole entry): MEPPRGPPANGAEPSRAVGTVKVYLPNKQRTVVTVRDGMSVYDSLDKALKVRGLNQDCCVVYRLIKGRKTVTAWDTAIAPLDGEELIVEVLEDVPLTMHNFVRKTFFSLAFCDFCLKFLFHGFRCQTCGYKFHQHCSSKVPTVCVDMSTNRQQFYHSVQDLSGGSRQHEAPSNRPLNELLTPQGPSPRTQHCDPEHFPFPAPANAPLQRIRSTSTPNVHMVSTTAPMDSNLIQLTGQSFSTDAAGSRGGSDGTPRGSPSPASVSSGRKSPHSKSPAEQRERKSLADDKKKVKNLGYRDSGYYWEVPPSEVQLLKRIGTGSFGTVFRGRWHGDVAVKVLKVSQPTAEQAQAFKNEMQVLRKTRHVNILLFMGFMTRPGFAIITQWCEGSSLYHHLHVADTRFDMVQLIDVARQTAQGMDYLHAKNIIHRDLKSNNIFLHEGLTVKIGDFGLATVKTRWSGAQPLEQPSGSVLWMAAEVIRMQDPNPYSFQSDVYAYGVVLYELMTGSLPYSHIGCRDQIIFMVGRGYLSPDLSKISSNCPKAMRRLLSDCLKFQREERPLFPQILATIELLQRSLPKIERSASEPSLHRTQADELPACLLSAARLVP
Description: Binding affinity to ARAF (unknown origin) at 1 uM by kinase profiling analysis.

Assay [9] concerns the target Serine/threonine-protein kinase B-raf (Homo sapiens, UniProt P15056). The assay can be described thus: Inhibition of BRAF (unknown origin).
The test system of assay [10] is MIA PaCa-2. The assay can be described thus: Induction of apoptosis in human MIA PaCa-2 cells assessed as late apoptotic cells at 0.25 uM incubated for 24 hrs by Annexin V-FITC/PI staining based flow cytometry (reference value: 6.90 %). It counts as functional.
The subject of assay [11] is HCT-116. Description: Antitumor activity against human HCT-116 cells harboring KRAS G13D mutant xenografted in NU/NU mouse assessed as tumor growth inhibition administered intravenously 5 times a week for 16 days. It counts as functional, cell-based. The conditions noted are these: dose 15-30 mg/kg, route iv, time 16.0 day.

Molecules are shown by their SMILES. Calls of active or inactive are those of the source. No cut-off for these calls is given here.

Chain of Serine/threonine-protein kinase B-raf (P15056 whole entry): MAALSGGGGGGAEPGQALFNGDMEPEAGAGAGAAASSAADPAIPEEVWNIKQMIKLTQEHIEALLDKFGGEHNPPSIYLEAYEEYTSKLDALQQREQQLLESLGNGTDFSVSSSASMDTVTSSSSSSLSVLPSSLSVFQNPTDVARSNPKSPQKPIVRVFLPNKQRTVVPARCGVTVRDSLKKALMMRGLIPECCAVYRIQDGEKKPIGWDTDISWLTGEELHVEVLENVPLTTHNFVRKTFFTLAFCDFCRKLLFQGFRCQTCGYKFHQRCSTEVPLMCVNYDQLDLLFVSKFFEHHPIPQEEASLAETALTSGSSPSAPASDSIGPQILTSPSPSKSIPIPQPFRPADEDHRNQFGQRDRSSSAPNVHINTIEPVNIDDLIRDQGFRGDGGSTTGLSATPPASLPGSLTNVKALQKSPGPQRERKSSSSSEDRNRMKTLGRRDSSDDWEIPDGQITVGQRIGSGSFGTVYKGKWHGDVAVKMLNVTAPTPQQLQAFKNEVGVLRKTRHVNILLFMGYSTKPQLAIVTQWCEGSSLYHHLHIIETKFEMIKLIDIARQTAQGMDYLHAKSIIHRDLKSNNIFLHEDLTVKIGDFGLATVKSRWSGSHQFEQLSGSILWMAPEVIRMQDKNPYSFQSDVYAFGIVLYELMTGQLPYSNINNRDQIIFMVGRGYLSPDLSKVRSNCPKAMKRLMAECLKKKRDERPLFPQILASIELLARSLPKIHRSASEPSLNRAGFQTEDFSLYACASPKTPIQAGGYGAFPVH

Consider `CCNS(=O)(=O)Nc1cccc(Cn2cnc3c(F)c(Nc4ccc(C5CC5)cc4F)c(C(=O)NOCCO)cc32)c1F`, for which the Activity came out at 42.1% with MIA PaCa-2 [1], 9.09% in the assay on MIA PaCa-2 [4] and 7.36% in the assay on MIA PaCa-2 [10]. For the same molecule, the IC50 (as a rule, the concentration that gives 50% inhibition) was determined as 96 nM in assay [2] and 3 nM in [9]. The inhibition entry with MIA PaCa-2 [3], with HUVEC and in the assay with HCT-116 [11] was “Active” in each case. In addition, the inhibition in vivo at 30 mg/kg stood at 70% in assay [5] and 93% with HCT-116 [7]. Moreover, the outcome (with MIA PaCa-2 [6]; in assay [8]) was Active.
